# Molecular target: T1, recombinant human SHP2 protein (Homo sapiens, UniProt Q06124)
# T1 sequence (Q06124 1-593): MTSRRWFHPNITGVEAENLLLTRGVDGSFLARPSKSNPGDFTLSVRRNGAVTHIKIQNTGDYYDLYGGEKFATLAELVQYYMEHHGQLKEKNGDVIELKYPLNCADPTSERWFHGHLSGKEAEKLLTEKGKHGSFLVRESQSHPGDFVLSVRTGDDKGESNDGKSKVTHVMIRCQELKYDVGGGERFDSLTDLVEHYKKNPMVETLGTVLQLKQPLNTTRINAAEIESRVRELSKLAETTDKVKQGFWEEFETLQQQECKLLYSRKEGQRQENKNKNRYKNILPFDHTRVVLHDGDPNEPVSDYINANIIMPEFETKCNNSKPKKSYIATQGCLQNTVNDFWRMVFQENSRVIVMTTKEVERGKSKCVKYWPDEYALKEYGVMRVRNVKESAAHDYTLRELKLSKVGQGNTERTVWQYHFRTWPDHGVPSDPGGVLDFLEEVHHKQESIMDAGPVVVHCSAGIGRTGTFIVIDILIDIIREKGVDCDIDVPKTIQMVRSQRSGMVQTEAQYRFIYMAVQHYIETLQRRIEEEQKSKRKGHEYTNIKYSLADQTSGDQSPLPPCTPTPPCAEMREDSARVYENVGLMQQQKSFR
# Test: SHP2 inhibition assay (pNPP substrate)
# Format: biochemical
# Settings: pNPP 4 mM, SHP2 240 nM, 37 °C, 30 min; means ± SD
# Method: pGEX-4T1 SHP2 WT (plasmid #8322) was purchased from Addgene. […] Then, 0.2 mM IPTG (Sangon Biotech, Shanghai, China) was added to induce the expression of protein at 30 °C for 4 h followed by centrifugation and cells collection. Cells were then broken by ultrasound in lysis buffer (20 mM Tris–HCl (pH 8.0), 100 mM KCl, 10% glycerol, 1 mM DTT, 0.5% Triton X-100) on ice. The supernatant was collected by centrifugation at 10,000× g for 15 min at 4 °C. The BeaverBeads GSH (Beaver Biosciences Inc., Guangzhou, China) washed by lysis buffer were incubated with the supernatant for 2 h at 4 °C. […] Then, the experiment was performed in a final volume of 100 μL containing 10 mM Tris–HCl (pH 7.5), 25 mM NaCl, 1 mM EDTA and 4 mM pNPP in a 96-well plate at 37 °C for 30 min. The amount of product p-nitrophenol was determined by the absorbance at 405 nm in a multimode reader (Berthold Technologies GmbH & Co.KG, Bad Wildbad, Baden Württemberg, Germany). The IC50 value was calculated by GraphPad Prism 7.0 software (GraphPad Inc, San Diego, CA, USA).
row,Compound,IC50
1,"CCOc1ccc(Oc2ccc(C3=NN(C=O)C(c4ccc(O)c(O)c4)C3)cc2)cc1 (stereo not drawn) [Compound 4a, 5-(3,4-dihydroxyphenyl)-3-(4-(4-ethoxyphenoxy)phenyl)-4,5-dihydro-1H-pyrazole-1-carbaldehyde]",13.3 ± 2.11 µM
2,"CC(C)(C)c1ccc(Oc2ccc(C3=NN(C=O)C(c4ccc(O)c(O)c4)C3)cc2)cc1 (stereo not drawn) [Compound 4b, 3-(4-(4-(tert-butyl)phenoxy)phenyl)-5-(3,4-dihydroxyphenyl)-4,5-dihydro-1H-pyrazole-1-carbaldehyde]",13.7 ± 1.98 µM
3,"CCC(=O)N1N=C(c2ccc(Oc3ccccc3)cc2)CC1c1ccc(O)c(O)c1 (stereo not drawn) [Compound 4c, 1-(5-(3,4-dihydroxyphenyl)-3-(4-phenoxyphenyl)-4,5-dihydro-1H-pyrazol-1-yl)propan-1-one]",34.2 ± 5.9 µM
4,"CCCC(=O)N1N=C(c2ccc(Oc3ccccc3)cc2)CC1c1ccc(O)c(O)c1 (stereo not drawn) [Compound 4d, 1-(5-(3,4-dihydroxyphenyl)-3-(4-phenoxyphenyl)-4,5-dihydro-1H-pyrazol-1-yl)butan-1-one]",9.51 ± 2.01 µM
5,"CCOc1ccc(Oc2ccc(C3=NN(C(N)=S)C(c4ccc(O)c(O)c4)C3)cc2)cc1 (stereo not drawn) [Compound 4e, 5-(3,4-dihydroxyphenyl)-3-(4-(4-ethoxyphenoxy)phenyl)-4,5-dihydro-1H-pyrazole-1-carbothioamide]",5.96 ± 0.92 µM
6,"COc1ccc(C2=NN(C(N)=S)C(c3ccc(O)c(O)c3)C2)cc1 (stereo not drawn) [Compound 4f, 5-(3,4-dihydroxyphenyl)-3-(4-methoxyphenyl)-4,5-dihydro-1H-pyrazole-1-carbothioamide]",13.2 ± 1.89 µM
7,"NC(=S)N1N=C(c2ccc(Oc3ccccc3)cc2)CC1c1ccc(O)c(O)c1 (stereo not drawn) [Compound 4g, 5-(3,4-dihydroxyphenyl)-3-(4-phenoxyphenyl)-4,5-dihydro-1H-pyrazole-1-carbothioamide]",5.97 ± 0.88 µM
8,"CC(C)(C)c1ccc(Oc2ccc(C3=NN(C(N)=S)C(c4ccc(O)c(O)c4)C3)cc2)cc1 (stereo not drawn) [Compound 4h, 3-(4-(4-(tert-butyl)phenoxy)phenyl)-5-(3,4-dihydroxyphenyl)-4,5-dihydro-1H-pyrazole-1-carbothioamide]",8.44 ± 2.03 µM

# Other lines, results leading:
row,IC50,Compound
1,20.4 ± 2.45 µM,"NC(=S)N1N=C(c2ccc(Br)cc2)CC1c1ccc(O)c(O)c1 (stereo not drawn) [Compound 4i, 3-(4-bromophenyl)-5-(3,4-dihydroxyphenyl)-4,5-dihydro-1H-pyrazole-1-carbothioamide]"
2,11.4 ± 1.56 µM,"COc1ccc(C2=NN(C3=NC(=O)CS3)C(c3ccc(O)c(O)c3)C2)cc1 (stereo not drawn) [Compound 4j, 2-(5-(3,4-dihydroxyphenyl)-3-(4-methoxyphenyl)-4,5-dihydro-1H-pyrazol-1-yl)thiazol-4(5H)-one]"
3,4.98 ± 0.77 µM,"O=C1CSC(N2N=C(c3ccc(Oc4ccccc4)cc3)CC2c2ccc(O)c(O)c2)=N1 (stereo not drawn) [Compound 4k, 2-(5-(3,4-dihydroxyphenyl)-3-(4-phenoxyphenyl)-4,5-dihydro-1H-pyrazol-1-yl)thiazol-4(5H)-one]"
4,4.36 ± 0.65 µM,"CCOc1ccc(Oc2ccc(C3=NN(C4=NC(=O)CS4)C(c4ccc(O)c(O)c4)C3)cc2)cc1 (stereo not drawn) [Compound 4l, 2-(5-(3,4-dihydroxyphenyl)-3-(4-(4-ethoxyphenoxy)phenyl)-4,5-dihydro-1H-pyrazol-1-yl)thiazol-4(5H)-one]"
5,4.94 ± 0.79 µM,"CC(C)(C)c1ccc(Oc2ccc(C3=NN(C4=NC(=O)CS4)C(c4ccc(O)c(O)c4)C3)cc2)cc1 (stereo not drawn) [Compound 4m, 2-(3-(4-(4-(tert-butyl)phenoxy)phenyl)-5-(3,4-dihydroxyphenyl)-4,5-dihydro-1H-pyrazol-1-yl)thiazol-4(5H)-one]"
6,18.5 ± 2.32 µM,"O=C1CSC(N2N=C(c3ccc(Br)cc3)CC2c2ccc(O)c(O)c2)=N1 (stereo not drawn) [Compound 4n, 2-(3-(4-bromophenyl)-5-(3,4-dihydroxyphenyl)-4,5-dihydro-1H-pyrazol-1-yl)thiazol-4(5H)-one]"

# System: HCT116 cells xenograft
# Test: Anti-tumor activity in vivo, HCT116 xenograft model
# Design: species or system BALB/c-nude mice
# Settings: 4o 25, 50 mg/kg or 5-FU 25 mg/kg, 13 days
# Method: Male BALB/c-nude mice (Jinan Pengyue Experimental Animal Breeding Co., Ltd., Jinan, China), 5 weeks of age, were used. The mice were housed in a specific pathogen-free room with temperature controlled (22 ± 2 °C), humidity (55 ± 10%) and a light/dark cycle of 12 h, providing sterile food and water. The HCT116 cells xenograft model was conducted, and 1 × 10^7 HCT116 cells were subcutaneously injected into the right armpit of mice. The tumor volume of mice was measured every three days to evaluate the tumor growth. When the tumor volume reached about 100 mm^3, the mice were randomly divided into four groups (n = 6), and treated with vehicle (0.5% CMC-Na solution) or 4o (25, 50 mg/kg) by gavage once a day for 13 consecutive days. A total of 25 mg/kg 5-FU was used as a positive control. The body weight of mice was measured every three days. The length (L) and width (W) of tumors were measured by electronic caliper every three days. The volume (V) was calculated as follows: V = (L × W^2)/2. When the tumor volume reached about 1000 mm^3, the tumors were excised. Immunohistochemical analysis were used to evaluate the related protein levels.
row,Compound,Effect on body weight of tumor-bearing mice
1,"O=c1[nH]cc(F)c(=O)[nH]1 [Compound 5-FU, 5-fluorouracil, reference compound]",showed a decrease

# Same assay, conditions: 5-FU 25 mg/kg, positive drug, 13 days
row,Compound,Tumor inhibition rate
1,"O=c1[nH]cc(F)c(=O)[nH]1 [Compound 5-FU, 5-fluorouracil, reference compound]",54.8%

# System: SHP2
# Test: not given
# Settings: cited from earlier work
row,Compound,IC50
1,NC(=O)C(c1ccccc1)S(=O)(=O)O (stereo not drawn) [Sulfophenyl acetic amide],1.5 µM
2,Tautomycetin,2.9 µM
